The values below come from publication PMC10104807, “Modulation of tau tubulin kinases (TTBK1 and TTBK2) impacts ciliogenesis” (Scientific Reports, 2023).

Common to all, as to experiment: DiscoverX scanMAX binding assay
The target of one assay is T1, MAP4K2 (Homo sapiens, UniProt Q12851).
T1 construct: purchased Eurofins (radiometric) / Eurofins DiscoverX scanMAX / Reaction Biology / SignalChem
T1 sequence (Q12851 1-820): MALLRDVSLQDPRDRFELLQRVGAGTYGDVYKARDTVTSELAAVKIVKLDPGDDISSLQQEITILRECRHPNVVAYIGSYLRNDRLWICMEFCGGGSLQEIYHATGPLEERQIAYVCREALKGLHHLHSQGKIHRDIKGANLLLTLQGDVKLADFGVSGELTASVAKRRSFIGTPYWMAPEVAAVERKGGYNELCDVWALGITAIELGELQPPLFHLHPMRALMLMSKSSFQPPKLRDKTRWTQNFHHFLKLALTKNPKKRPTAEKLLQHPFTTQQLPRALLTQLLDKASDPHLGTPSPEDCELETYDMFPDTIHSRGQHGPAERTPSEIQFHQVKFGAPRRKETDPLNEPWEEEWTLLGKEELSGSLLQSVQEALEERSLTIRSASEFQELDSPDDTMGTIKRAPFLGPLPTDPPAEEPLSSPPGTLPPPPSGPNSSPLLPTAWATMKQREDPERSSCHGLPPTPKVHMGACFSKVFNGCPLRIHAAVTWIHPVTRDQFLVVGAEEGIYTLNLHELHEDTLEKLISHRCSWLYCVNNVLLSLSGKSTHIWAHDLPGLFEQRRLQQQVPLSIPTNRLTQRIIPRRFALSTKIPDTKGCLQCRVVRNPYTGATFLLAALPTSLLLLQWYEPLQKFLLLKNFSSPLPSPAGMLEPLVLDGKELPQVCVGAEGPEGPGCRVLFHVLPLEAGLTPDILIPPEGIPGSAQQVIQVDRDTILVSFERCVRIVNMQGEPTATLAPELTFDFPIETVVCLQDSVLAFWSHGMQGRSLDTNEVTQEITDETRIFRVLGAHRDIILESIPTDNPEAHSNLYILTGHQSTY
The following applies: for MAP4K2 % control at 1000nM: 1 μM. The source says:
(§1) This panel includes 403 wild-type (WT) human kinases but not TTBK1/2. […] Substantial overlap between the MRC and DiscoverX scanMAX kinase panels allows the comparison of results for the same kinases in two different assay formats (enzymatic versus binding, respectively) at the same concentration. Selectivity results are included in two columns within Table 1. […] The rightmost column converts this selectivity score into the number of kinases with a PoC < 10 in the scanMAX panel.
(§2) The Eurofins DiscoverX Corporation scanMAX assay platform was employed to assess the selectivity of specific analogs at a single concentration (1 µM). As described previously, this assay platform profiles a compound against 403 wild-type human kinases and delivers percent of control (PoC) values. These percent of control values are included in Table 1 and corresponding kinome tree diagrams as well as tables for each analog included in Fig. S1.

The target in the next assay is T2, TAOK1 (Homo sapiens, UniProt Q7L7X3).
T2 construct: purchased Eurofins
T2 sequence (Q7L7X3 1-1001): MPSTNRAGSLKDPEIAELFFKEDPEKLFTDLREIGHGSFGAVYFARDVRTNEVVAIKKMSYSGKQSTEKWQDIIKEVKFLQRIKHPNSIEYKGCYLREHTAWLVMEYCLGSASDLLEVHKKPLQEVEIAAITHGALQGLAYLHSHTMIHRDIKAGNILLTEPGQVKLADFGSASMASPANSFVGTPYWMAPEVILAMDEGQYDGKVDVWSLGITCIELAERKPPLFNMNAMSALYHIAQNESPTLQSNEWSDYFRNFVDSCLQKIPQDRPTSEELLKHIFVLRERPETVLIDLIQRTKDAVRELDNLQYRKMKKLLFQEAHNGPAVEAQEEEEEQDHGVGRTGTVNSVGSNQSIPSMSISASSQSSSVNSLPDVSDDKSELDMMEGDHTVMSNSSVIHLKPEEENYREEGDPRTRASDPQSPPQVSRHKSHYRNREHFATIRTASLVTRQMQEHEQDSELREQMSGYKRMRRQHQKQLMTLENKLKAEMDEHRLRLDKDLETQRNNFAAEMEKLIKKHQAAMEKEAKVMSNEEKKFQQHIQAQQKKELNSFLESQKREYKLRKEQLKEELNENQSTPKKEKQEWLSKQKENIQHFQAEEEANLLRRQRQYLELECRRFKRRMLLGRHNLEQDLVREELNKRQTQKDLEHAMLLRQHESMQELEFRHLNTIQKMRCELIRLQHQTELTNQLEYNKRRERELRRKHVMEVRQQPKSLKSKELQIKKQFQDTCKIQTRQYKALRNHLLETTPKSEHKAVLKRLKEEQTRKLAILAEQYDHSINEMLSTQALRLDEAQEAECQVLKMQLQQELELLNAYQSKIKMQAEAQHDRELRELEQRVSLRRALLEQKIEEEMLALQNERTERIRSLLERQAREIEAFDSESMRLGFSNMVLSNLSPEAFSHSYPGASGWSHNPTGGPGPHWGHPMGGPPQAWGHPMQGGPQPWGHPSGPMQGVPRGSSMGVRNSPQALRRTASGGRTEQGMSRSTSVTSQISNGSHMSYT
The following applies: 1 μM.
Excerpt: as §1, §2

For a further assay, the target named is T3, PIP5K1C (Homo sapiens, UniProt O60331).
T3 construct: purchased Eurofins (radiometric) / Eurofins DiscoverX scanMAX / Reaction Biology / SignalChem
The following applies: 1 μM.
Excerpt: as §1, §2

Structures are written as SMILES.

T3 sequence (O60331 whole entry): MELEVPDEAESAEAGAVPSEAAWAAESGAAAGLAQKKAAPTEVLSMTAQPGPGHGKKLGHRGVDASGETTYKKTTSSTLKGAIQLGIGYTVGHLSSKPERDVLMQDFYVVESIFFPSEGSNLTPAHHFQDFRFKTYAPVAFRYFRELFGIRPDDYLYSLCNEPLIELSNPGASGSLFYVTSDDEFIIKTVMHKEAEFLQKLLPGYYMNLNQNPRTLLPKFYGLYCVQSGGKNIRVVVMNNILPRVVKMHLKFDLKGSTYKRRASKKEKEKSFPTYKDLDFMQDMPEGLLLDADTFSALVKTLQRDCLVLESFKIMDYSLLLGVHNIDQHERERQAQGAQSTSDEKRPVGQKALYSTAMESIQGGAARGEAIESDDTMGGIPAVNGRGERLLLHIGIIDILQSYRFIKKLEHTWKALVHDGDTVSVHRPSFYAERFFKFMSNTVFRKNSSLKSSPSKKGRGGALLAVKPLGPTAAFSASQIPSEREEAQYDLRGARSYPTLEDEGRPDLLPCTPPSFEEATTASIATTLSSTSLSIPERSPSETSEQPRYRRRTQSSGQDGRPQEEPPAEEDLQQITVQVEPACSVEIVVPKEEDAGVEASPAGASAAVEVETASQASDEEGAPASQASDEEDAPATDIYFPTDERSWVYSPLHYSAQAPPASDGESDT

For `CC(C)(O)C#Cc1ccc2[nH]c3c(c2c1)-c1nc(N)ncc1CCC3` [AMG28, reference compound], the percent of control (binding) at 1 µM at MAP4K2 (read-out: MAP4K2 % control at 1000nM) is 1.3%. Further, on TAOK1, the “TAOK1 % control at 1000nM / DiscoverX PoC value” was 3.2 % control. The “PIP5K1C % control at 1000nM / DiscoverX PoC value” at PIP5K1C came to 3.1 % control.
Take `CC(C)(O)C#Cc1ccc2[nH]c3c(c2c1)-c1nc(N)ncc1CC3` [Compound 1]: the “MAP4K2 % control at 1000nM” value on MAP4K2 is given as 2 % control. For the same compound, at TAOK1, the “TAOK1 % control at 1000nM / DiscoverX PoC value” amounted to 1.2 % control. The “PIP5K1C % control at 1000nM / DiscoverX PoC value” on PIP5K1C was found to be 0.5 % control.
`CC(C)(O)C#Cc1ccc2[nH]cc(-c3ccnc(N)n3)c2c1` [Compound 3]: the “MAP4K2 % control at 1000nM” value on MAP4K2 is 1.6 % control. For the same compound, at TAOK1, the “TAOK1 % control at 1000nM / DiscoverX PoC value” was found to be 2.1 % control. Also, the “PIP5K1C % control at 1000nM / DiscoverX PoC value” on PIP5K1C is on record as 0.4 % control.
